In patent US11655243B2, “Pyridine and pyrazine derivatives as preferential cannabinoid 2 agonists” (HOFFMANN-LA ROCHE INC., priority 2018, dated 2023) one finds Ki data, which are given here for seven molecules.

The first assay deals with human CNR2 receptors (CB2 receptor) (Homo sapiens (Human), UniProt P34972). As to the kind of experiment: Radioligand binding assay, human CB2 (CNR2).
Chain of human CNR2 receptors (CB2 receptor) (P34972 whole entry): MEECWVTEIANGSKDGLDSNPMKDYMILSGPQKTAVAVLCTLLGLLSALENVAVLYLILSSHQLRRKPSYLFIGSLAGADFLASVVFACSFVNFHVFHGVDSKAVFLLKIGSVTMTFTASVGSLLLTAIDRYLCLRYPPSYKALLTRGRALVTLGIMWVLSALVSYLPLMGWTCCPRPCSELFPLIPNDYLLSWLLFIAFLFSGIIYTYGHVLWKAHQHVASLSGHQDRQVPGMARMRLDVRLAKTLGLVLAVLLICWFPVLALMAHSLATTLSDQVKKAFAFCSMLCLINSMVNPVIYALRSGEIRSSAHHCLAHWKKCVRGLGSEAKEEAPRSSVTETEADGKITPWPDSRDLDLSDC
Conditions: not given
The protocol: Radioligand Binding Assay
The affinity of the compounds of the invention for cannabinoid CB1 receptors was determined using recommended amounts of membrane preparations (PerkinElmer) of human embryonic kidney (HEK) cells expressing the human CNR1 or CNR2 receptors in conjunction with 1.5 or 2.6 nM [3H]-CP-55,940 (Perkin Elmer) as radioligand, respectively. Binding was performed in binding buffer (50 mM Tris, 5 mM MgCl2, 2.5 mM EDTA, and 0.5% (wt/vol) fatty acid free BSA, pH 7.4 for CB1 receptor and 50 mM Tris, 5 mM MgCl2, 2.5 mM EGTA, and 0.1% (wt/vol) fatty acid free BSA, pH 7.4 for CB2 receptor) in a total volume of 0.2 ml for 1 h at 30° C. shaking. The reaction was terminated by rapid filtration through microfiltration plates coated with 0.5% polyethylenimine (UniFilter GFB filter plate; Packard). Bound radioactivity was analyzed for Ki using nonlinear regression analysis (Activity Base, ID Business Solution, Limited), with the Kd values for [3H]CP55,940 determined from saturation experiments. The compounds of formula (I) show an excellent affinity for the CB2 receptor.
The compounds according to formula (I) have an activity in the above assay (Ki) between 0.5 nM and 10 μM. Particular compounds of formula (I) have an activity in the above assay (Ki) between 0.5 nM and 3 μM. Other particular compounds of formula (I) have an activity in the above assay (Ki) between 0.5 nM and 100 nM.
Consider `CCC(CC)(NC(=O)c1ccc(N2CC(O)C2)c(OC[C@H]2C[C@@H]2COCc2ccccc2)n1)C(=O)OCCCF` (racemic) [Example 22, (Rac)-trans-3-Fluoropropyl 2-[[6-[[-2-(benzyloxymethyl)cyclopropyl]methoxy]-5-(3-hydroxyazetidin-1-yl)pyridine-2-carbonyl]amino]-2-ethyl-butanoate], for which the inhibition constant (Ki) came to 0.755 µM.
Still for that read-out and setting: with `CCC(CC)(NC(=O)c1ccc(N2CC(OS(=O)(=O)c3ccc(C)cc3)C2)c(OC[C@H]2C[C@@H]2CO)n1)C(=O)OCCCF` (racemic) [Example 31, (Rac)-trans-3-fluoropropyl 2-ethyl-2-[[6-[[-2-(hydroxymethyl)cyclopropyl]methoxy]-5-[3-(p-tolylsulfonyloxy)azetidin-1-yl]pyridine-2-carbonyl]amino]butanoate] the figure was 0.0117 µM.

The assay is the same for the next values; noted with them: membranes of HEK cells expressing human CNR2, 2.6 nM [3H]-CP-55,940 radioligand; read-out: Binding assay human CB2 Ki.
Consider `CCOC(=O)C(CC)(CC)NC(=O)c1ccc(N2CC(OC)C2)c(OC[C@H]2C[C@@H]2CF)n1` (mixture of isomers) [Example 3, Ethyl 2-ethyl-2-{[6-{[(1S,2S)-2-(fluoromethyl)cyclopropyl]methoxy}-5-(3-methoxyazetidin-1-yl)pyridine-2-carbonyl]amino}butanoate and ethyl 2-ethyl-2-{[6-{[(1R,R)-2-(fluoromethyl)cyclopropyl]methoxy}-5-(3-methoxyazetidin-1-yl)pyridine-2-carbonyl]amino}butanoate], for which the inhibition constant (Ki) worked out at 0.0005 µM.
Turning to `CCOC(=O)C(CC)(CC)NC(=O)c1ccc(N2CC(OC)C2)c(OC[C@@H]2C[C@@H]2CF)n1` (mixture of isomers) [Example 4, Ethyl 2-ethyl-2-{[6-{[(1R,2S)-2-(fluoromethyl)cyclopropyl]methoxy}-5-(3-methoxyazetidin-1-yl)pyridine-2-carbonyl]amino}butanoate and ethyl 2-ethyl-2-{[6-{[(1S,2R)-2-(fluoromethyl)cyclopropyl]methoxy}-5-(3-methoxyazetidin-1-yl)pyridine-2-carbonyl]amino}butanoate], the Ki is 0.0007 µM.
Still for that read-out and setting: with `CCOC(=O)C(CC)(CC)NC(=O)c1ccc(N2CC(OC)C2)c(OC[C@@H]2C[C@@H]2COCF)n1` (mixture of isomers) [Example 5, Ethyl 2-ethyl-2-{[6-({(1R,2S)-2-[(fluoromethoxy)methyl]cyclopropyl}methoxy)-5-(3-methoxyazetidin-1-yl)pyridine-2-carbonyl]amino}butanoate and ethyl 2-ethyl-2-{[6-({(1S,2R)-2-[(fluoromethoxy)methyl]cyclopropyl}methoxy)-5-(3-methoxyazetidin-1-yl)pyridine-2-carbonyl]amino}butanoate] the figure was 0.0046 µM.
On the same count and under the same terms, with `CCOC(=O)C(CC)(CC)NC(=O)c1ccc(N2CC(OC)C2)c(OC[C@@H]2C[C@@H]2COCCF)n1` (mixture of isomers) [Example 6, Ethyl 2-ethyl-2-{[6-({(1R,2S)-2-[(2-fluoroethoxy)methyl]cyclopropyl}methoxy)-5-(3-methoxyazetidin-1-yl)pyridine-2-carbonyl]amino}butanoate and ethyl 2-ethyl-2-{[6-({(1S,2R)-2-[(2-fluoroethoxy)methyl]cyclopropyl}methoxy)-5-(3-methoxyazetidin-1-yl)pyridine-2-carbonyl]amino}butanoate] the figure was 0.013 µM; with `CCC(CC)(NC(=O)c1ccc(N2CC(F)C2)c(OC[C@@H]2C[C@H]2CO)n1)C(=O)N[C@H](CO)CC(C)C` (single isomer, unassigned) [Example 27, N-[1-Ethyl-1-[[(1S)-1-(hydroxymethyl)-3-methyl-butyl]carbamoyl]propyl]-5-(3-fluoroazetidin-1-yl)-6-[[(1R,2R)-2-(hydroxymethyl)cyclopropyl]methoxy]pyridine-2-carboxamide or N-[1-ethyl-1-[[(1S)-1-(hydroxymethyl)-3-methyl-butyl]carbamoyl]propyl]-5-(3-fluoroazetidin-1-yl)-6-[[(1S,2S)-2-(hydroxymethyl)cyclopropyl]methoxy]pyridine-2-carboxamide], 4.15 µM.
